This is an account of results in patent US20210038515A1 (Azurity Pharmaceuticals, Inc., priority 2014, published 2021).

Series [1] in a line: in vitro. The settings on record: human, Caco-2. The protocol: Caco-2 cells are used as an in vitro model of the human intestinal epithelium and permit assessment of the intestinal permeability of potential drugs. Vancomycin is added to either the apical or basolateral side of a confluent monolayer of Caco-2 cells and permeability is measured by monitoring the appearance of the Vancomycin on the opposite side of the monolayer using LC-MS/MS. When performing a bi-directional assay, the efflux ratio (ER) is calculated from the ratio of B->A and A->B permeabilities.
The permeability measure of vancomycin in the apical to basolateral (A->B) and basolateral to apical (B->A) direction across Caco-2 cells, and to determine the efflux ratio.

Series [2] has as its system Clostridium difficile. Nature of the series: Agar dilution MIC of vancomycin preparations (Sigma, Cutis), diluent, Na benzoate and Na citrate. Type of series: cell-based. To be noted: tested separately at concentrations exceeding those present in the diluent. The protocol:
Introduction: The purpose of the study was to compare the MICs obtained with the formulation of vancomycin HCL of the invention (Cutis) to formulations obtained using a vancomycin HCL reference standard powder obtained from Sigma. The Example also involves the analysis of a solution or diluent to determine if it has antimicrobial activity at the concentrations present in the agar dilution test.
The C. difficile were tested by agar dilution according to the procedures in the Clinical and Laboratory Standards Institute. 2012. Methods for antimicrobial susceptibility testing of anaerobic bacteria; approved standard-seventh edition.
Other anaerobic organisms included clinical isolates of Bifidobacterium adolescentis and Bacteroides fragilis. Clostridium difficile ATCC 700057 was included as a quality control strain.
The C. difficile isolates were recovered from patients with CDI during the past two years and stored at −70° C. in 20% skim milk. Ribotyping was performed by another reference laboratory. The strains were taken from the freezer and subcultured at least twice to ensure purity and good growth.
On the day of testing, they were suspended in Brucella broth to the turbidity of the 0.5 McFarland standard for testing.
Stock solution of the Sigma vancomycin was prepared in water and stored at −70° C. On the day of testing, it was thawed and further diluted in water to obtain the desired range of 16-0.125 μg/ml. The Cutis vancomycin (25 mg/ml) was reconstituted on the day of testing and further diluted for a final range of 16-0.125 μg/ml in the test. The antimicrobials were added to molten Brucella agar supplemented with vitamin K and hemin to prepare the plates. Drug-free growth controls were included for testing before and after each set of plates. All testing was done in triplicate.
The organisms were pipetted into the wells of the Steers replicator head and applied to the plates with the multi-pronged replicator. The final concentration of organisms was ˜10^5 CFU/spot.
The plates were incubated in the anaerobic chamber incubator for 44 h and examined for growth.
The Cutis diluent comprises: water, about 0.12% (w/v) citric acid (anhydrous), 0.2% (w/v) sucralose, about 0.05% (w/v) artificial grape flavor, 0.1% (w/v) sodium benzoate, about 0.0002% (w/v) D&C Yellow No. 10 and about 0.000038% (w/v) FD&C Red No. 40.

Series [3] concerns Staphylococcus aureus ATCC 29213. Nature of the series: MIC by reference agar dilution method (CLSI M11-A8), quality control strain. The settings on record: Fresh. Type of series: cell-based. The protocol:
The vancomycin hydrochloride solution of the invention and the IV solution were reconstituted to a concentration of 25 mg/ml. […] The MICs were determined by the reference agar dilution method (CLSI M11-A8). All serial two-fold dilutions were prepared on the same day and added to molten agar to prepare plates.
The in vitro activity was tested for three different preparations of vancomycin freshly reconstituted, and stored at ambient and at refrigerated temperatures. The C. difficile strains were selected to represent the most frequently encountered ribotypes.
Plates were prepared by adding 1 ml of lysed sheep blood and two mls of the twofold dilutions of the vancomycin preparations to molten agar. Plates were mixed, poured and allowed to harden. Suspensions of the organisms were applied to the plates using a Steers replicating device that delivered approximately 10^5 cfu/spot. Each preparation was tested in triplicate. Plates were incubated at 37° C. for 48 h.
Plates were examined for growth.
For orientation: In agar dilution the substance is mixed into plates at graded concentrations.

Series [4] has as its system C. difficile. The experiment in a line: MIC by reference agar dilution method (CLSI M11-A8) of stored vancomycin preparations. It is filed as cell-based, Clostridium difficile. To be noted: for MIC, average of triplicate: Fresh.
The conditions of series [5]: orally-administered; cited from earlier work.

The structures appear in SMILES notation.

Consider `COCCc1ccc(OCC(O)CNC(C)C)cc1` (stereo not shown) [Metoprolol], for which, in series [1], the apparent permeability from apical to basolateral (Papp A→B) (as a rule, the apparent permeability from the apical to the basolateral side of a cell layer) was found to be 11.6 ×10⁻⁶ cm/s and the Papp B→A – broadly, the apparent permeability from the basolateral to the apical side of a cell layer – worked out at 30 ×10⁻⁶ cm/s.
On to `O=C([O-])c1ccccc1.[Na+]` [Na benzoate], for which the growth inhibition result in series [2] is reported as “no inhibition”.
On the same count and under the same terms, with `O=C([O-])CC(O)(CC(=O)[O-])C(=O)[O-].[Na+].[Na+].[Na+]` [Na citrate] the entry was “no inhibition”.
As to `CNC(=C[N+](=O)[O-])NCCSCc1ccc(CN(C)C)o1` [Ranitidine], in series [1], the Papp A→B was found to be 0.3 ×10⁻⁶ cm/s and the basolateral-to-apical permeability (Papp B→A) turned out to be 1.5 ×10⁻⁶ cm/s.
As for `CN[C@H](CC(C)C)C(=O)N[C@H]1C(=O)N[C@@H](CC(N)=O)C(=O)N[C@H]2C(=O)N[C@H]3C(=O)N[C@H](C(=O)N[C@H](C(=O)O)c4cc(O)cc(O)c4-c4cc3ccc4O)[C@H](O)c3ccc(c(Cl)c3)Oc3cc2cc(c3O[C@@H]2O[C@H](CO)[C@@H](O)[C@H](O)[C@H]2O[C@H]2C[C@](C)(N)[C@H](O)[C@H](C)O2)Oc2ccc(cc2Cl)[C@H]1O.Cl` [Reference standard], the “MIC, average of triplicate” value in series [3] (ATCC 29213 SA QC (S. aureus)) is 2 µg/mL; in series [4] (ATCC 7000057 QC (C. difficile)) it was 1 µg/mL; in series [4] (RMA 24504, ribotype 027), 1 µg/mL; in series [4] (RMA 24510, ribotype 027) it was 1 µg/mL; in series [4] (RMA 24519, ribotype 027), 1 µg/mL; in series [4] (RMA 24527, ribotype 014) it was 1 µg/mL. The “MIC, average of triplicate” value in series [4] (RMA 24529, ribotype 014) is 1 µg/mL; in series [4] (RMA 24541, ribotype 020) it was 1 µg/mL; in series [4] (RMA 24543, ribotype 020), 1 µg/mL; in series [4] (RMA 24547, ribotype 014), 1 µg/mL; in series [4] (RMA 24561, ribotype 078), 1 µg/mL; in series [4] (RMA 24567, ribotype 020), 1 µg/mL. The “MIC, average of triplicate” value worked out at 1 µg/mL in series [4] (RMA 24575, ribotype 078); 4 µg/mL in series [4] (RMA 24594, ribotype 106); 2 µg/mL in series [4] (RMA 24601, ribotype 106); 1 µg/mL in series [4] (RMA 24605, ribotype 002); 1 µg/mL in series [4] (RMA 24607, ribotype 106); 1 µg/mL in series [4] (RMA 24608, ribotype 002). Further, the “MIC, average of triplicate” value in series [4] (RMA 24615, ribotype 005) is 2 µg/mL; in series [4] (RMA 24628, ribotype 012), 1 µg/mL; in series [4] (RMA 24641, ribotype 001/072), 1 µg/mL; in series [4] (RMA 24643, ribotype 001/072), 1 µg/mL; in series [4] (RMA 24646, ribotype 001/072), 1 µg/mL; in series [4] (RMA 24655, ribotype 005) it was 2 µg/mL. The “MIC, average of triplicate” value in series [4] (RMA 24678, ribotype 012) is 4 µg/mL; in series [4] (RMA 24683, ribotype 027), 2 µg/mL; in series [4] (RMA 24690, ribotype 027), 4 µg/mL. The “vancomycin MIC from triplicate test, best of 3 values” in series [3] (ATCC 29213 SA QC) is 2 µg/mL. The “Average MIC (geometric mean, all 25 strains)” value in series [4] (reference standard powder stock solution stored at −70 C) came to 1.5 µg/mL.
`CN[C@H](CC(C)C)C(=O)N[C@H]1C(=O)N[C@@H](CC(N)=O)C(=O)N[C@H]2C(=O)N[C@H]3C(=O)N[C@H](C(=O)N[C@H](C(=O)O)c4cc(O)cc(O)c4-c4cc3ccc4O)[C@H](O)c3ccc(c(Cl)c3)Oc3cc2cc(c3O[C@@H]2O[C@H](CO)[C@@H](O)[C@H](O)[C@H]2O[C@H]2C[C@](C)(N)[C@H](O)[C@H](C)O2)Oc2ccc(cc2Cl)[C@H]1O` [vancomycin]: in series [5], the absorption result is given as “cannot be absorbed” and the “concentrations in the colon” value was 500 to 1000 µg/mL.
